Measured values as given in patent US20040115710A1, “Method for assaying compounds that decrease the activity of poly (ADP-ribose)-Polymerase (PARP)” (Aventis Pharmaceuticals Inc., priority 2002, published 2004).

Tests used:
[1] = biological target: T1, Poly(ADP-Ribose)-Polymerase enzyme (PARP) (Homo sapiens, UniProt P09874); test: Fluorescence polarization PARP inhibition assay (Texas Red-labeled NAD+ tracer, histone, DNA); assay type: biochemical; settings: known inhibitor of PARP used as control compound; inhibition curve in FIG. 3
T1 construct: IC50
Text: (§1) The transfer of Texas Red-ADP ribose to protein substrates (histone and PARP itself) can be monitored through the rotational speed of the fluorescence tracer by the fluorescence polarization method. The assay measures the ability of the test compounds to inhibit the enzyme to transfer fluorescence labeled ADP to protein substrates.
(§2) A PARP baculovirus which encodes the amino acid sequence of FIG. 6 (SEQ ID NO: 1), was used to infect sf(9) cells. After PARP was expressed, it was partially purified by 40-70% ammonia sulfate cuts, and then re-suspended in TRIS buffer containing 25% (v/v) glycerol. […]
(§3) After incubation, this mixture and the control mixture were illuminated with plane polarized light having a wavelength of 590 nm, and the fluorescence polarization of the mixture and the control mixture were measured using a fluorescence filter set with an excitation wavelength of 590 nm, and an emission wavelength of 620 nm. The measurements were made with a fluorescence polarization plate reader in fluorescence polarization (FP) mode. These two measurements were then compared to determine whether the fluorescence polarization measurement of the mixture containing the compound or agent is less than that of the control. […]

[2] = biological target: Poly(ADP-Ribose)-Polymerase enzyme (PARP) (Homo sapiens, UniProt P09874, E70Q); test: as above; assay type: biochemical; settings: standard (control) inhibitor of PARP, value given in materials table
Text: as §1, §2, §3

Sequence of Poly(ADP-Ribose)-Polymerase enzyme (PARP) (Homo sapiens, UniProt P09874, E70Q) (P09874 whole entry E70Q): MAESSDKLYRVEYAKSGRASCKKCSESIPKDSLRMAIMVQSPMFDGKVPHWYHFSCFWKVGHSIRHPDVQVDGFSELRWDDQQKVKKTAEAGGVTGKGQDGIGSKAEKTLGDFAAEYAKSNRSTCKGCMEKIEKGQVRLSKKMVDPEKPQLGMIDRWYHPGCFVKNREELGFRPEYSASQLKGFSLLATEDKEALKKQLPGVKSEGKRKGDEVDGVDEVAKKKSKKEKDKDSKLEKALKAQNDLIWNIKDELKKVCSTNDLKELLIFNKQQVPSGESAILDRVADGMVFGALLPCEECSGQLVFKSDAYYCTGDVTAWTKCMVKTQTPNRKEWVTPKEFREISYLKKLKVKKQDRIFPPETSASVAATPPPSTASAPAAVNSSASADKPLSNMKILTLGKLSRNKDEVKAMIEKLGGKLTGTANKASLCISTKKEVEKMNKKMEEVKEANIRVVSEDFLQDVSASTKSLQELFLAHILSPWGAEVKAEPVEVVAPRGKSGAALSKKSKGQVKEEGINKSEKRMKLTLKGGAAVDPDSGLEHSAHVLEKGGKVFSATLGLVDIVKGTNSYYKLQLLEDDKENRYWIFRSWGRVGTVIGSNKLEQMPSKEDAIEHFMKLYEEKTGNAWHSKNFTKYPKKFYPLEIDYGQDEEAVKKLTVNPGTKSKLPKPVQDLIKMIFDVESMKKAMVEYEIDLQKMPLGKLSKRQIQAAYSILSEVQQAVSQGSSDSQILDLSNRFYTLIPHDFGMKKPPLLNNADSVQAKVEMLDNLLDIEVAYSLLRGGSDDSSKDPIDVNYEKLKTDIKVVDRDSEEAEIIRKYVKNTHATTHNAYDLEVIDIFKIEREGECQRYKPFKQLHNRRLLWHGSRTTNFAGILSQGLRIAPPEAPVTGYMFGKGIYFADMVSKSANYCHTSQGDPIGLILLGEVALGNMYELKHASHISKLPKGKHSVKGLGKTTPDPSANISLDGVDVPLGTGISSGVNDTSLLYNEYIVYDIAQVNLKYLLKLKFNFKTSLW
T1 sequence (P09874 whole entry): as the sequence (P09874 whole entry E70Q) above, with Q70E counted along it

Q: For `Oc1cccc2c(O)nccc12` [1,5-isoquinoline-diol], which IC50 [1] is on record?
A: Its IC50 is 379 nM.

Q: How did the IC50 [2] turn out when `O=c1[nH]c2ccccc2c2ccccc12` [6(5H)-phenanthridinone] was run?
A: Its IC50 is 200 nM.
